The results in this text go back to US10966964B2, “Method for preparing pharmaceutical composition comprising pyrrolo-fused six-membered heterocyclic compound” (Jiangsu Hengrui Medicine Co., Ltd., priority 2016, dated 2021).

The series is described as follows: Water solubility and moisture stability of the active ingredient (statement). It counts as physicochemical. The note with it: compound of formula (I) or a pharmaceutically acceptable salt thereof. From the text:
Since the compound of formula (I) or a pharmaceutically acceptable salt thereof has poor water solubility, and is unstable in the presence of moisture, water cannot be used as a solvent for wet granulation. When the compound of formula (I) or a pharmaceutically acceptable salt thereof is formulated into a pharmaceutical composition by using a conventional preparation method, the resulting composition is difficult to dissolve rapidly and keep its quality stable. There is a need to find a suitable method to obtain a stable composition with a rapid dissolution.

As to `CCN(CC)CCN1CCc2[nH]c(/C=C3\C(=O)Nc4ccc(F)cc43)c(C)c2C1=O.O=C(O)C[C@H](O)C(=O)O` [compound of formula (I), 5-(2-diethylamino-ethyl)-2-(5-fluoro-2-oxo-1,2-dihydro-indol-3-ylidene-methyl)-3-methyl-1,5,6,7-tetrahydro-pyrrolo[3,2-c]pyridin-4-one], the “stability in the presence of moisture (in words)” value is given as “unstable” and the “water solubility (in words)” value is given as “poor”.
